{"source": "paper PMC3458012", "about": "“Gliadin Peptides Induce Tissue Transglutaminase Activation and ER-Stress through Ca^2+ Mobilization in Caco-2 Cells” (PLoS ONE, 2012)", "key": {"intracellular tTG [1]": {"system": "intracellular tTG", "test": "Microplate assay of tTG transamidating activity on cell lysates", "assay_type": "cell-based", "details": "Caco-2 cells", "description": "(§1) In situ tTG activity was visualized by using the tTG substrate pentylamine-biotin (Euroclone, Milan, Italy) as reported elsewhere. Caco-2 cells were treated for 30 min with 10 µM ionomycin (Sigma-Aldrich, Milan, Italy), or with different amounts of gliadin peptides, or with 1 µM THP, in the presence of 0.5 mM pentylamine-biotin, before being processed for microscopy observation. To visualize biotin-labeled p31–43 and p57–68 in the cells, peptides needed to be used at a concentration of 0.2 mM. […] Pentylamine-biotin was also used to quantify the tTG transamidating activity by a microplate assay. Briefly, after 30 min of treatment with 20 µg/ml gliadin peptides, or with 1 µM THP, cells were lysed and proteins (25 µg) were coated into the wells of a 96-well plate. The wells were blocked with 10% bovine serum albumin then incubated with 1∶5000 peroxidase-conjugated streptavidin (Euroclone) in 5% bovine serum albumin. To reveal peroxidase activity, 3,3′,5,5′-tetramethylbenzidine (Sigma-Aldrich, Milan, Italy) was added to each well and, after stopping the reaction with H2SO4, absorbances were read at 450 nm."}, "intracellular tTG [2]": {"system": "intracellular tTG", "test": "In situ tTG transamidating activity, pentylamine-biotin incorporation, microscopy", "assay_type": "cell-based", "details": "Caco-2 cells; for In situ tTG crosslinking activity (fluorescence of pentylamine-biotin incorporation): 30 min, complete medium, peptides 20 µg/ml, ionomycin 10 µM, THP 1 µM, 0.5 mM pentylamine-biotin", "description": "as §1"}, "Caco-2 cells": {"system": "Caco-2 cells", "assay_type": "cell-based", "description": "Intracellular Ca^2+ concentration ([Ca^2+]i) was measured in Caco-2 cells by single cell computer-assisted videoimaging using the Ca^2+ indicator Fura-2 acetoxymethyl ester, as previously described, [22]. Gliadin peptides were loaded at concentrations between 0.2 and 20 µg/ml for 30 min at 37°C in normal Krebs solution containing the following (in mM): 5.5 KCl, 160 NaCl, 1.2 MgCl2, 1.5 CaCl2, 10 glucose, and 10 Hepes-NaOH, pH 7.4. To selectively deplete intracellular Ca^2+ stores, experiments were performed in the presence of thapsigargin (THP) (1 µM), an irreversible and selective inhibitor of the sarco(endo)plasmic reticulum Ca^2+ ATPase, and in the presence of the mitochondrial uncoupler carbonylcyanide-p-trifluoromethoxyphenylhydrazone (FCCP) (300 nm)."}, "CHOP [3]": {"system": "CHOP", "test": "CHOP mRNA by real-time RT-PCR", "assay_type": "cell-based, human", "details": "Caco-2 cells, 24 h, peptides 20 µg/ml, THP 1 µM, normalized to GAPDH"}, "CHOP [4]": {"system": "CHOP", "test": "CHOP protein level by western blot", "assay_type": "cell-based", "details": "Caco-2 cells, 24 h, peptides 20 µg/ml, THP 1 µM, normalized to tubulin", "description": "(§2) Cells were washed with phosphate-buffered saline solution and mechanically harvested in lysis buffer, consisting of 20 mM Tris-HCl, pH 7.5, 150 mM NaCl, 1 mM EDTA, 1 mM dithiotreitol, 0.1% sodium dodecyl sulphate, 1% triton X-100, 1 mM ortovanadate, and inhibitors cocktail (Sigma-Aldrich). After 30 min of incubation on ice, cell extracts were centrifuged at 12,000 g for 30 min at 4°C, to remove cell debris, then 75 µg of total proteins were separated by 10% sodium dodecyl sulphate-polyacrylamide gel electrophoresis and transferred to a membrane. To detect tTG, the blot was treated as described elsewhere. To detect GRP78 and CHOP, the blots were treated with 5% skim milk in phosphate-buffered saline overnight at 4°C, then incubated for 2 h with an anti-GRP78 rabbit polyclonal antibody (H-129) (1∶500; Santa Cruz, CA, USA), or with an anti-CHOP mouse monoclonal antibody (1∶1,500; Santa Cruz), respectively, in phosphate-buffered saline containing 0.1% tween-20. After washing, the blots were incubated for 1 h at room temperature with an anti-rabbit-peroxidase secondary antibody (1∶10,000; Bio-Rad Laboratories), or with an anti-mouse-peroxidase secondary antibody (1∶10,000; Bio-Rad Laboratories), respectively."}, "GRP78 [5]": {"system": "GRP78", "test": "GRP78 mRNA by real-time RT-PCR", "assay_type": "cell-based, human", "details": "Caco-2 cells, 24 h, peptides 20 µg/ml, THP 1 µM, normalized to GAPDH"}, "GRP78 [6]": {"system": "GRP78", "test": "GRP78 protein level by western blot", "assay_type": "cell-based", "details": "Caco-2 cells, 24 h, THP 1 µM, normalized to tubulin", "description": "as §2"}}, "note": "Ends that are not written are not given here.", "data": [{"compound": "NCCSSCCN", "note": "[cystamin]", "values": [{"measurement": "Effect of cystamin pretreatment on tTG activity induced by ionomycin or p31–43", "setting": "intracellular tTG [1]; microplate assay, three experiments in triplicate", "result": "significant reduction of tTG activity"}, {"measurement": "Inhibition of in situ tTG activation induced by ionomycin and p31–43", "setting": "intracellular tTG [2]; cystamin 200 µM added 5 min before treatment", "result": "inhibited the tTG activation"}]}, {"compound": "QLQPFPQPQLPY [p57–68]", "values": [{"measurement": "EC50 of [Ca2+]i increase", "setting": "Caco-2 cells", "result": 0.9, "unit": "µg/mL"}]}, {"compound": "PLIRPLLARPAK [pHTP, irrelevant control peptide, 537–548 region of the human thyroid peroxidase]", "values": [{"measurement": "In situ tTG crosslinking activity (fluorescence of pentylamine-biotin incorporation)", "setting": "intracellular tTG [2]", "result": "fluorescence intensity did not increase"}]}, {"compound": "LPQFEEIRNLALQTLPAM [p229–246]", "values": [{"measurement": "In situ tTG crosslinking activity (fluorescence of pentylamine-biotin incorporation)", "setting": "intracellular tTG [2]", "result": "fluorescence intensity did not increase"}]}, {"compound": "QQPQDAVQPF [pCTR, irrelevant control peptide … from durum wheat]", "values": [{"measurement": "In situ tTG crosslinking activity (fluorescence of pentylamine-biotin incorporation)", "setting": "intracellular tTG [2]", "result": "fluorescence intensity did not increase"}, {"measurement": "[Ca2+]i increase with respect to the basal value", "setting": "Caco-2 cells; Caco-2 cells, 20 µg/ml, normal Krebs solution", "result": "did not affect"}]}, {"compound": "LGQQQPFPPQQPY [p31–43]", "values": [{"measurement": "EC50 of [Ca2+]i increase", "setting": "Caco-2 cells", "result": 0.2, "unit": "µg/mL"}]}, {"compound": "C/C=C(/C)C(=O)O[C@H]1C(C)=C2[C@H]([C@@H]1OC(=O)CCCCCCC)[C@@](C)(OC(C)=O)C[C@H](OC(=O)CCC)[C@@]1(O)[C@H]2OC(=O)[C@@]1(C)O", "note": "[THP, thapsigargin]", "values": [{"measurement": "Increase of tTG activity versus cells exposed to pentylamine-biotin alone", "setting": "intracellular tTG [1]; 30 min, peptides 20 µg/ml or THP 1 µM, 25 µg lysate, absorbance 450 nm, at least 3 experiments in triplicate", "result": "similar"}, {"measurement": "In situ tTG crosslinking activity (fluorescence of pentylamine-biotin incorporation)", "setting": "intracellular tTG [2]", "result": "sufficient to activate intracellular tTG"}, {"measurement": "In situ tTG activation in Ca2+-free medium", "setting": "intracellular tTG [2]; phosphate-buffered saline without Ca2+ and Mg2+", "result": "sufficient to activate intracellular tTG"}, {"measurement": "Increase of CHOP mRNA expression", "setting": "CHOP [3]", "result": "about 14 fold"}, {"measurement": "Increase of CHOP protein expression", "setting": "CHOP [4]", "result": "three-fold"}, {"measurement": "Increase of GRP78 mRNA expression with respect to untreated cells", "setting": "GRP78 [5]", "result": "about 30 fold"}, {"measurement": "Increase of GRP78 protein expression", "setting": "GRP78 [6]", "result": "about five-fold"}]}]}
